molecular target: T1, human PKCθ full length enzyme (Homo sapiens, UniProt Q04759); experiment: PKCθ IMAP assay (fluorescence polarization); type: biochemical; settings: human PKCθ full length enzyme, IMAP; average value; read-out: IC50 PKCθ IMAP
T1 construct: human PKCθ full length enzyme (Panvera Cat# P2996); purchased Panvera P2996
Method: The reaction buffer was prepared by diluting the 5× stock reaction buffer and adding DTT to obtain a concentration of 3.0 mM. […] The final concentration of compound was 2× and 10% DMSO. DMSO was added to the rest of the master mix to increase the concentration to 10%. 10 μl of the master mix containing 10% DMSO was added to the rest of the wells on the plate except the 2nd column. 20 μl was transferred from the first column to the 2nd column. The compounds were serially diluted in 2:1 ratio starting from the 2nd column. A 2× ([…]) PKCθ solution was made in the reaction buffer. 10 μl of the PKCθ solution was added to every well to achieve these final concentrations: PKCθ—1 nM; ATP—6 μM; peptide—100 nM; DMSO—5%. Samples were incubated for 25 minutes at room temperature. The binding reagent was prepared by diluting the beads in 1× binding buffer to 800:1. 50 μl of the binding reagent was added to every well and incubated for 20 minutes. FP was measured using Envision2100 (PerkinElmer Life Sciences). Wells with no ATPs and wells with no enzymes were used as controls.

T1 sequence (Q04759 whole entry): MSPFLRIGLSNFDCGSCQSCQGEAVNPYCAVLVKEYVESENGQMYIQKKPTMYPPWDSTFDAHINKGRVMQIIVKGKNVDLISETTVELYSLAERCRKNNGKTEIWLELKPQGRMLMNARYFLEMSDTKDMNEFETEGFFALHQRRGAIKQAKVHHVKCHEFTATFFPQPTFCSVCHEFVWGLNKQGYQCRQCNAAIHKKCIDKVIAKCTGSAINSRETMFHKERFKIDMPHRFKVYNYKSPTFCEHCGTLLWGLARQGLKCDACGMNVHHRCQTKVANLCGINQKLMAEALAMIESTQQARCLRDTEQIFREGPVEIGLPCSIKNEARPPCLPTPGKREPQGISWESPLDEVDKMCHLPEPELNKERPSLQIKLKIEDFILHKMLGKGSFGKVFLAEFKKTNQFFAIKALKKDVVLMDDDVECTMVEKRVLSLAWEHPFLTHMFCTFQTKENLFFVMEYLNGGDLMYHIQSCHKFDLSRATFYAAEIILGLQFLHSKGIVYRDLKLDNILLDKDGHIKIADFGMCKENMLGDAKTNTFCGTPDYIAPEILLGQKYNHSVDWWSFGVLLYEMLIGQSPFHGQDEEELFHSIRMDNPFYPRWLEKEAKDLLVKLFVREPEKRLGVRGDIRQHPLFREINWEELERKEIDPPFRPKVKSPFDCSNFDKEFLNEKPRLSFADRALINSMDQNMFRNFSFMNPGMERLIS

In order of rising IC50:
1. COc1ccc(-c2cncc(C#N)c2Nc2cccc3[nH]ccc23)cc1OCCNCCc1ccccc1 [Compound 353, 4-(1H-indol-4-ylamino)-5-(4-methoxy-3-{2-[(2-phenylethyl)amino]ethoxy}phenyl)nicotinonitrile]  1 nM
2. N#Cc1cncc(-c2cc3cc(CNCC4CC4)ccc3s2)c1Nc1cccc2[nH]ccc12 [Compound 279, 5-(5-{[(cyclopropylmethyl)amino]methyl}-1-benzothien-2-yl)-4-(1H-indol-4-ylamino)nicotinonitrile]  1 nM
3. N#Cc1cncc(-c2cccc(Br)c2)c1Nc1cccc2[nH]ccc12 [Compound 114, 5-(3-bromophenyl)-4-(1H-indol-4-ylamino)nicotinonitrile]  2 nM
4. Cc1c(Nc2c(C#N)cncc2-c2cc3cc(CN4CCCC4)ccc3o2)ccc2[nH]ccc12 [Compound 389, 4-[(4-methyl-1H-indol-5-yl)amino]-5-[5-(pyrrolidin-1-ylmethyl)-1-benzofuran-2-yl]nicotinonitrile]  3 nM
5. Cc1c(Nc2c(C#N)cncc2-c2ccc(OCCNCCCc3ccccc3)cc2)ccc2[nH]ccc12 [Compound 355, 4-[(4-methyl-1H-indol-5-yl)amino]-5-(4-{2-[(3-phenylpropyl)amino]ethoxy}phenyl)nicotinonitrile]  3 nM
6. Cc1c(Nc2c(C#N)cncc2-c2cc3cc(CN4CCC(N5CCOCC5)CC4)ccc3o2)ccc2[nH]ccc12 [Compound 395, 4-[(4-methyl-1H-indol-5-yl)amino]-5-{5-[(4-morpholin-4-ylpiperidin-1-yl)methyl]-1-benzofuran-2-yl}nicotinonitrile]  4 nM
7. CN(C)Cc1ccc2sc(-c3cncc(C#N)c3Nc3cccc4[nH]ccc34)cc2c1 [Compound 224, 5-{5-[(dimethylamino)methyl]-1-benzothien-2-yl}-4-(1H-indol-4-ylamino)nicotinonitrile]  4 nM
8. Cc1c(Nc2c(C#N)cncc2-c2ccc(OCCNCCO)cc2)ccc2[nH]ccc12 [Compound 414, 5-(4-{2-[(2-hydroxyethyl)amino]ethoxy}phenyl)-4-[(4-methyl-1H-indol-5-yl)amino]nicotinonitrile]  4 nM
9. Cc1c(Nc2c(C#N)cncc2-c2cc3cc(CN4CCNCC4)ccc3o2)ccc2[nH]ccc12 [Compound 540, 4-[(4-methyl-1H-indol-5-yl)amino]-5-[5-(piperazin-1-ylmethyl)-1-benzofuran-2-yl]nicotinonitrile]  5 nM
10. Cc1c(Nc2c(C#N)cncc2-c2ccc(OCCN3CCN(c4ccncc4)CC3)cc2)ccc2[nH]ccc12 [Compound 431, 4-[(4-methyl-1H-indol-5-yl)amino]-5-{4-[2-(4-pyridin-4-ylpiperazin-1-yl)ethoxy]phenyl}nicotinonitrile]  5 nM
11. Cc1c(Nc2c(C#N)cncc2-c2cc3cc(CN(C)C)ccc3o2)ccc2[nH]ccc12 [Compound 382, 5-{5-[(dimethylamino)methyl]-1-benzofuran-2-yl}-4-[(4-methyl-1H-indol-5-yl)amino]nicotinonitrile]  6 nM
12. Cc1c(Nc2c(C#N)cncc2-c2ccc(CN3CCN(C)CC3)s2)ccc2[nH]ccc12 [Compound 464, 4-[(4-methyl-1H-indol-5-yl)amino]-5-{5-[(4-methylpiperazin-1-yl)methyl]-2-thienyl}nicotinonitrile]  6 nM
13. Cc1c(Nc2c(C#N)cncc2-c2cccc(CN(C)C)c2)ccc2[nH]ccc12 [Compound 457, 5-{3-[(dimethylamino)methyl]phenyl}-4-[(4-methyl-1H-indol-5-yl)amino]nicotinonitrile]  7 nM
14. Cc1c(Nc2c(C#N)cncc2-c2ccc(CN3CCC(N4CCOCC4)CC3)o2)ccc2[nH]ccc12 [Compound 405, 4-[(4-methyl-1H-indol-5-yl)amino]-5-{5-[(4-morpholin-4-ylpiperidin-1-yl)methyl]-2-furyl}nicotinonitrile]  9 nM
15. COc1ccc(-c2cncc(C#N)c2Nc2cc3cc[nH]c3cc2C)cc1OC [Compound 412, 5-(3,4-dimethoxyphenyl)-4-[(6-methyl-1H-indol-5-yl)amino]nicotinonitrile]  10 nM
16. Cc1c(Nc2c(C#N)cncc2-c2ccc(OCCNCc3cccnc3)cc2)ccc2[nH]ccc12 [Compound 433, 4-[(4-methyl-1H-indol-5-yl)amino]-5-(4-{2-[(pyridin-3-ylmethyl)amino]ethoxy}phenyl)nicotinonitrile]  10 nM
17. Cc1c(Nc2c(C#N)cncc2-c2ccc(OCCN3CCCN(C)CC3)cc2)ccc2[nH]ccc12 [Compound 426, 5-{4-[2-(4-methyl-1,4-diazepan-1-yl)ethoxy]phenyl}-4-[(4-methyl-1H-indol-5-yl)amino]nicotinonitrile]  13 nM
18. Cc1c(Nc2c(C#N)cncc2-c2oc3ccccc3c2C)ccc2[nH]ccc12 [Compound 466, 5-(3-methyl-1-benzofuran-2-yl)-4-[(4-methyl-1H-indol-5-yl)amino]nicotinonitrile]  17 nM
19. Cc1c(Nc2c(C#N)cncc2-c2cccs2)ccc2[nH]ccc12 [Compound 561, 4-[(4-methyl-1H-indol-5-yl)amino]-5-(2-thienyl)nicotinonitrile]  21 nM
20. COc1ccc(-c2cncc(C#N)c2Nc2cccc3[nH]ccc23)cc1OCCN1CCC(O)CC1 [Compound 302, 5-{3-[2-(4-hydroxypiperidin-1-yl)ethoxy]-4-methoxyphenyl}-4-(1H-indol-4-ylamino)nicotinonitrile]  30 nM
21. N#Cc1cncc(-c2ccc(OCCN3CCOCC3)cc2)c1Nc1cccc2[nH]ccc12 [Compound 334, 4-(1H-indol-4-ylamino)-5-[4-(2-morpholin-4-ylethoxy)phenyl]nicotinonitrile]  30 nM
22. Cc1cc2[nH]ccc2cc1Nc1c(C#N)cncc1-c1ccc(OCCN2CCN(C)CC2)cc1 [Compound 496, 4-[(6-methyl-1H-indol-5-yl)amino]-5-{4-[2-(4-methylpiperazin-1-yl)ethoxy]phenyl}nicotinonitrile]  33 nM
23. Cc1c(Nc2c(C#N)cncc2-c2cccnc2)ccc2[nH]ccc12 [Compound 519, 4-[(4-methyl-1H-indol-5-yl)amino]-3,3′-bipyridine-5-carbonitrile]  36 nM
24. N#Cc1cncc(-c2ccc(NCCN3CCOCC3)nc2)c1Nc1cccc2[nH]ccc12 [Compound 361, 4-(1H-indol-4-ylamino)-6′-[(2-morpholin-4-ylethyl)amino]-3,3′-bipyridine-5-carbonitrile]  40 nM
25. COc1ccc(-c2cncc(C#N)c2Nc2ccc3[nH]ccc3c2)cc1OCCNCCc1ccccn1 [Compound 251, 4-(1H-indol-5-ylamino)-5-(4-methoxy-3-{2-[(2-pyridin-2-ylethyl)amino]ethoxy}phenyl)nicotinonitrile]  40 nM
26. Cc1c(Nc2c(C#N)cncc2-c2ccc(OCCN3CCC(c4ccccc4)CC3)cc2)ccc2[nH]ccc12 [Compound 435, 4-[(4-methyl-1H-indol-5-yl)amino]-5-{4-[2-(4-phenylpiperidin-1-yl)ethoxy]phenyl}nicotinonitrile]  49 nM
27. Cc1cc2[nH]ccc2cc1Nc1c(C#N)cncc1-c1cc2ccccc2o1 [Compound 413, 5-(1-benzofuran-2-yl)-4-[(6-methyl-1H-indol-5-yl)amino]nicotinonitrile]  55 nM
28. COc1ccc(-c2cncc(C#N)c2Nc2ccc3[nH]ccc3c2)cc1OCCNCc1cccnc1 [Compound 239, 4-(1H-indol-5-ylamino)-5-(4-methoxy-3-{2-[(pyridin-3-ylmethyl)amino]ethoxy}phenyl)nicotinonitrile]  80 nM
29. N#Cc1cncc(-c2cccc(C(N)=O)c2)c1Nc1cccc2[nH]ccc12 [Compound 314, 3-[5-cyano-4-(1H-indol-4-ylamino)pyridin-3-yl]benzamide]  100 nM
30. Cc1c(Nc2c(C#N)cncc2-c2cccc(C(=O)O)c2)ccc2[nH]ccc12 [Compound 556, 3-{5-cyano-4-[(4-methyl-1H-indol-5-yl)amino]pyridin-3-yl}benzoic acid]  110 nM
31. COc1ccc(-c2cncc(C#N)c2Nc2ccc3[nH]ccc3c2)cc1OCCNC1CCCCC1 [Compound 244, 5-{3-[2-(cyclohexylamino)ethoxy]-4-methoxyphenyl}-4-(1H-indol-5-ylamino)nicotinonitrile]  170 nM
32. CCN1CCN(CCOc2cc(-c3cncc(C#N)c3Nc3ccc4[nH]ccc4c3)ccc2OC)CC1 [Compound 234, 5-{3-[2-(4-ethylpiperazin-1-yl)ethoxy]-4-methoxyphenyl}-4-(1H-indol-5-ylamino)nicotinonitrile]  190 nM
33. Cc1c(Nc2c(C#N)cncc2-c2cnc3ccccc3c2)ccc2[nH]ccc12 [Compound 589, 4-[(4-methyl-1H-indol-5-yl)amino]-5-quinolin-3-ylnicotinonitrile]  191 nM
34. COc1ccc(-c2cncc(C#N)c2Nc2ccc3[nH]ccc3c2)cc1OCCN1CCCCC1 [Compound 235, 4-(1H-indol-5-ylamino)-5-[4-methoxy-3-(2-piperidin-1-ylethoxy)phenyl]nicotinonitrile]  240 nM
35. N#Cc1cncc(-c2cccc(-c3ccc(C(=O)NC4CCCCC4)cc3)c2)c1Nc1ccc2[nH]ccc2c1 [Compound 202, 3′-[5-cyano-4-(1H-indol-5-ylamino)pyridin-3-yl]-N-cyclohexylbiphenyl-4-carboxamide]  340 nM
36. COc1ccc(-c2cncc(C#N)c2NC[C@H]2CCC[C@@H](CN)C2)cc1OC (relative stereo) [Compound 443, 4-({[cis-3-(aminomethyl)cyclohexyl]methyl}amino)-5-(3,4-dimethoxyphenyl)nicotinonitrile]  1130 nM
